Measured values published in patent US20170312253A1 (The Third Affiliated Hospital, Third Military Medical …, priority 2014, published 2017).

Assays:
[1] = test system: APPswe/PS1DE9 (AD) transgenic mice; assay: Y-maze (spontaneous alternation and novel arm probe test); format: in vivo; details: AD mice vs control group
Method: APPswe/PS1DE9 (AD) transgenic mice were purchased from Jackson Laboratory, USA (No. 005864), raised in the SPF grade animal house of The Third Affiliated Hospital of The Third Military Medical University. All the processes and correlated experiments applied to the mice were approved and filed with the Animal Ethics Committee of the Third Military Medical University. […] Alternatively, the daily dose for the prophylactic group may be 6.4 mg/kg, and the daily dose for the treatment group may be 12.8 mg/kg. Administration from 3-month old to 9-month old is the prophylactic test, and administration from 9-month old to 12-month old is the therapeutic test After reaching a stated time, the mice in each group received behavioral tests according to the method in the follows. Three mice in each group were taken for Golgi staining. The remaining mice were overly anaesthetized to receive brain anatomy. One side of the cerebral hemisphere was frozen and then for a biochemical analysis, and the other side of the cerebral hemisphere was fixed with 4% paraform for a histological analysis. All the mice in each group received behavioral tests, including a water maze, Y-maze and open field test. Water maze test includes four days of platform test and the subsequent probe test. The entire process was recorded by video, and analyzed with an image analysis software (ANY-maze, Stoelting). In the platform test, the escape path length and escape latency were measured and calculated. In the probe test, the time in each quadrant and the time across platform were measured. The spontaneous alternation test and novel arm probe test were carried out in the Y-maze. In the spontaneous alternation test, the mouse was free running In the maze for 5 min. Alternation is defined as entering the three arms connected with each other continuously. […] In the open field test, the mouse was put in the center of an open field for 3 min, and its path was recorded by a tracking system (Limelight, ActiMetrics). At the same time, the numbers of rearing, grooming, defecation and urination of the mouse were recorded.

[2] = test system: Aβ deposition in the brain; assay: Quantitative analysis of Aβ deposition in the brain (Congo red, 6E10); format: in vivo; details: AD mice, Congo red staining and 6E10 immunostaining
Method: (§1) APPswe/PS1DE9 (AD) transgenic mice were purchased from Jackson Laboratory, USA (No. 005864), raised in the SPF grade animal house of The Third Affiliated Hospital of The Third Military Medical University. All the processes and correlated experiments applied to the mice were approved and filed with the Animal Ethics Committee of the Third Military Medical University. […] Alternatively, the daily dose for the prophylactic group may be 6.4 mg/kg, and the daily dose for the treatment group may be 12.8 mg/kg. Administration from 3-month old to 9-month old is the prophylactic test, and administration from 9-month old to 12-month old is the therapeutic test After reaching a stated time, the mice in each group received behavioral tests according to the method in the follows. Three mice in each group were taken for Golgi staining. The remaining mice were overly anaesthetized to receive brain anatomy. One side of the cerebral hemisphere was frozen and then for a biochemical analysis, and the other side of the cerebral hemisphere was fixed with 4% paraform for a histological analysis.
The compact Aβ plaque was stained and labelled with Congo red. […] The Aβ plaques in the neopallium and hippocampal area were quantitatively analyzed with ImageJ analysis software to obtain the area percentage of the Aβ plaque and the quantities in a unit area.

NEP = assay: Western blot of Aβ metabolizing enzymes in brain: NEP; format: in vivo; details: AD mice brain
Method: (§2) APPswe/PS1DE9 (AD) transgenic mice were purchased from Jackson Laboratory, USA (No. 005864), raised in the SPF grade animal house of The Third Affiliated Hospital of The Third Military Medical University. All the processes and correlated experiments applied to the mice were approved and filed with the Animal Ethics Committee of the Third Military Medical University. […] Alternatively, the daily dose for the prophylactic group may be 6.4 mg/kg, and the daily dose for the treatment group may be 12.8 mg/kg. […]
(§3) The enzymes related with Aβ formation and degradation their molecule levels, the levels of hyperphosphprylated Tau proteins, and the levels of synaptic plasticity correlated proteins were all detected with Western blot. […] The blotting was detected with the following antibodies: APP C terminal antibody (171610, Millipore), BACE1 antibody (Millipore), Aβ antibody (6E10, Abcam), Nepriiysin antibody (Millipore), RAGE antibody (Millipore), LRP antibody (5A6, Calbiochem), IDE antibody (epitomics), phosphorylated Tau protein antibody, including pS396 (Signalway), pT231 (Signalway), pS199 (epitomics), pS262 (Abcam), SNAP25 antibody (Millipore), Synaptophysin antibody (Millipore), Synapsin I antibody (Millipore), VAMP1 antibody (Millipore), PSD95 antibody (Millipore), F-actin antibody (Actin) (Sigma-Aldrich). […]

β-secretase (BACE1) [3] = assay: Western blot of BACE1 expression in brain; format: in vivo; details: AD mice brain
Method: as §2, §3

β-secretase (BACE1) [4] = molecular target: T1, β-secretase (BACE1) (Mus musculus, UniProt P56818); assay: β-secretase activity in brain tissues (kit); format: in vivo; details: AD mice brain
T1 construct: The proteins in the brain tissue homogenates were extracted with a RIP A buffer solution; from tissue; host or cells: brain of APPswe/PS1DE9 mice
T1 sequence (P56818 46-501): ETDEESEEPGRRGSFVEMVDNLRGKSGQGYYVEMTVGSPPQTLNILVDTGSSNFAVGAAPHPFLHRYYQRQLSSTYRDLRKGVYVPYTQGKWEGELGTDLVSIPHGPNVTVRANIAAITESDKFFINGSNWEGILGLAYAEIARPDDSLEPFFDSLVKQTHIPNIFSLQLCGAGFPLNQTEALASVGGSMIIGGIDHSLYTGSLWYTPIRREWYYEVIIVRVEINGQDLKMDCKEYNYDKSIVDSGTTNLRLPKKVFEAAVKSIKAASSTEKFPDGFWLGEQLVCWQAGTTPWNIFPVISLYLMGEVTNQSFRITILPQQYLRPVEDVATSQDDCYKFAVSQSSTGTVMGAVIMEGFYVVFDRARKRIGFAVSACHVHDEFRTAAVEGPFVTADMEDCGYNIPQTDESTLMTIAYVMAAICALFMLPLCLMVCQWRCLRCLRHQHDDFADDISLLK
Method: as §1
After homogenating the frozen brain tissues, extraction was conducted with TBS, SDS and formic acid successively. The TBS, SDS and formic acid extracts represent soluble Aβ, loosen senile plaques and compact senile plaques, respectively. […]

Gsk-3β = molecular target: T2, Gsk-3β (Mus musculus, UniProt Q9WV60); assay: Gsk-3β activity in the brain of AD mice; format: in vivo
T2 construct: from tissue; host or cells: brain of APPswe/PS1DE9 mice
T2 sequence (Q9WV60 whole entry): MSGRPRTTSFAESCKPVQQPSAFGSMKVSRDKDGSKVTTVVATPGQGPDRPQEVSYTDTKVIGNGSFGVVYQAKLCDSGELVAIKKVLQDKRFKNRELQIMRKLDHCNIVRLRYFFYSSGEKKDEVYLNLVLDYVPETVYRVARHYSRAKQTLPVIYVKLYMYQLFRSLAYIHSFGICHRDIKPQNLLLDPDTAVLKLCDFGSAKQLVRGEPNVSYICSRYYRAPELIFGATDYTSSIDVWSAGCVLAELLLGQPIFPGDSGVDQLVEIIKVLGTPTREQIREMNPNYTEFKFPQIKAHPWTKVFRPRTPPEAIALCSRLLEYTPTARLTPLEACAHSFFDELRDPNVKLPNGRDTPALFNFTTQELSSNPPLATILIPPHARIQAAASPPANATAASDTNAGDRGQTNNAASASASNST
Method: as §1

BACE = assay: In vitro test of BACE expression
[5] = test system: dendritic spines of pyramidal cells in hippocampus CA1; assay: Golgi staining, dendritic spines; format: in vivo; details: AD mice
Method: as §1
After overly anesthetized, the animals received heart perfusions with normal saline containing 0.5% nitrous acid, 4% paraform, and Golgi dye liquor, successively. […]

How did the Y-maze alternation proportion [1] turn out when `CC1=NN(c2ccccc2)C(=O)C1` [Edaravone, 3-methyl-1-phenyl-2-pyrazolin-5-one] was run?
Its Y-maze alternation proportion is “also significantly increased”.

What about the Y-maze arm entry [1] of the same compound?
Its Y-maze arm entry is “significantly higher than in the control group”.

And the “Y-maze proportion of the novel arm entry” value [1]?
Its value is “significantly increased”.

And the “Aβ deposition in the brain, of the control group” value [2]?
Its value is “about 50%”.

And the “influence on NEP” value (NEP)?
The value was “no influence”.

And the “expression of β-secretase (BACE1)” value (β-secretase (BACE1) [3])?
Its value is “significant decrease”.

And the “activity of β-secretase (BACE1)” value (β-secretase (BACE1) [4])?
Its value is “significant decrease”.

And the “activity of Gsk-3β” value (Gsk-3β)?
Its value is “inhibit the activity of Gsk-3β”.

What about the “BACE expression in vitro” value (BACE) of the same compound?
Its value is “inhibits the BACE expression”.

What about the “numbers of the dendritic spines” value [5] of the same compound?
The value was “also significantly increased”.
